Reference: ChEMBL document CHEMBL3045602, “Synthesis and antimicrobial activity of novel derivatives of Biginelli pyrimidines” (2012)
In brackets after ≈: the same amount, converted by molar mass.

Legend:
Format in all cases: functional
[1] = system: Listeria monocytogenes; assay: Antimicrobial activity against Listeria monocytogenes PTCC 1165 after 24 hr by Alamar blue assay; details: PTCC 1165, 24 h
[2] = system: Pseudomonas aeruginosa; assay: Antimicrobial activity against Pseudomonas aeruginosa PTCC 1074 after 24 hr by Alamar blue assay; details: PTCC 1074, 24 h
[3] = system: Candida albicans; assay: Antimicrobial activity against Candida albicans PTCC 5027 after 24 hr by Alamar blue assay; details: PTCC 5027, 24 h
[4] = system: Escherichia coli; assay: Antimicrobial activity against Escherichia coli PTCC 1338 after 24 hr by Alamar blue assay; details: PTCC 1338, 24 h
[5] = system: Bacillus subtilis; assay: Antimicrobial activity against Bacillus subtilis PTCC 1023 after 24 hr by Alamar blue assay; details: PTCC 1023, 24 h
[6] = system: Salmonella enteritidis; assay: Antimicrobial activity against Salmonella enterica subsp. enterica serovar Enteritidis PTCC 1091 after 24 hr by Alamar blue assay; details: PTCC 1091, 24 h
[7] = system: Staphylococcus aureus; assay: Antimicrobial activity against Staphylococcus aureus PTCC 1337 after 24 hr by Alamar blue assay; details: PTCC 1337, 24 h
[8] = system: Aspergillus niger; assay: Antimicrobial activity against Aspergillus niger 5021 after 24 hr by Alamar blue assay; details: Aspergillus niger, 5021, 24 h

Compound | MIC [1] [µg/mL] | MIC [2] [µg/mL] | MIC [3] [µg/mL] | MIC [4] [µg/mL] | MIC [5] [µg/mL] | MIC [6] [µg/mL] | MIC [7] [µg/mL] | MIC [8] [µg/mL]
CC1=C(C(=O)OCC(C)C)C(c2cccs2)NC(S)=N1 (configuration not stated) | 512 (≈ 1650 µM) | > 512 | > 512 | 512 (≈ 1650 µM) | > 512 | > 512 | 512 (≈ 1650 µM) | > 512
CC1=C(C(=O)OC(C)C)C(c2cccs2)NC(S)=N1 (configuration not stated) | > 512 | > 512 | > 512 | > 512 | > 512 | > 512 | > 512 | > 512
CSc1ncc(C2NC(=O)NC(C)=C2C(=O)Nc2ccc(Cl)cc2)n1Nc1ccccc1 (configuration not stated) | > 512 | > 512 | 32 (≈ 68.2 µM) | 512 (≈ 1090 µM) | > 512 | 512 (≈ 1090 µM) | > 512 | 64 (≈ 136 µM)
CSc1ncc(C2NC(=O)NC(C)=C2C(=O)Nc2ccccn2)n1Nc1ccccc1 (configuration not stated) | > 512 | > 512 | 32 (≈ 73.5 µM) | > 512 | > 512 | > 512 | > 512 | 64 (≈ 147 µM)
CSc1ncc(C2NC(=O)NC(C)=C2C(=O)Nc2cccnc2)n1Nc1ccccc1 (configuration not stated) | > 512 | 512 (≈ 1180 µM) | 32 (≈ 73.5 µM) | 512 (≈ 1180 µM) | > 512 | > 512 | > 512 | 64 (≈ 147 µM)
CC1=C(C(=O)Nc2ccccc2Cl)C(c2cccs2)NC(=O)N1 (configuration not stated) | 256 (≈ 736 µM) | > 512 | > 512 | > 512 | 256 (≈ 736 µM) | > 512 | 512 (≈ 1470 µM) | > 512
CC1=C(C(=O)Nc2cccc(Cl)c2)C(c2cccs2)NC(=O)N1 (configuration not stated) | 256 (≈ 736 µM) | > 512 | > 512 | > 512 | 512 (≈ 1470 µM) | > 512 | 512 (≈ 1470 µM) | > 512
CC1=C(C(=O)Nc2ccc(Cl)cc2)C(c2cccs2)NC(=O)N1 (configuration not stated) | 512 (≈ 1470 µM) | 512 (≈ 1470 µM) | > 512 | > 512 | 512 (≈ 1470 µM) | 512 (≈ 1470 µM) | 256 (≈ 736 µM) | > 512
CC1=C(C(=O)Nc2ccccn2)C(c2cccs2)NC(=O)N1 (configuration not stated) | 512 (≈ 1630 µM) | 512 (≈ 1630 µM) | > 512 | > 512 | > 512 | 512 (≈ 1630 µM) | 512 (≈ 1630 µM) | > 512
CC1=C(C(=O)Nc2cccnc2)C(c2cccs2)NC(=O)N1 (configuration not stated) | 512 (≈ 1630 µM) | 512 (≈ 1630 µM) | > 512 | > 512 | > 512 | 512 (≈ 1630 µM) | > 512 | > 512
COC(=O)C1=C(C)NC(=O)NC1c1cnc(SC)n1Cc1ccccc1 (configuration not stated) | > 512 | 512 (≈ 1370 µM) | 256 (≈ 687 µM) | 512 (≈ 1370 µM) | 512 (≈ 1370 µM) | > 512 | 512 (≈ 1370 µM) | 256 (≈ 687 µM)
CCOC(=O)C1=C(C)NC(=O)NC1c1cnc(SC)n1Cc1ccccc1 (configuration not stated) | 512 (≈ 1320 µM) | 256 (≈ 662 µM) | 64 (≈ 166 µM) | 256 (≈ 662 µM) | 512 (≈ 1320 µM) | 512 (≈ 1320 µM) | > 512 | 64 (≈ 166 µM)
COC(=O)C1=C(C)NC(=O)NC1c1cnc(SC)n1Nc1ccccc1 (configuration not stated) | > 512 | 256 (≈ 686 µM) | 128 (≈ 343 µM) | 512 (≈ 1370 µM) | > 512 | 512 (≈ 1370 µM) | > 512 | 128 (≈ 343 µM)
CCOC(=O)C1=C(C)NC(=O)NC1c1cnc(SC)n1Nc1ccccc1 (configuration not stated) | > 512 | 128 (≈ 330 µM) | 64 (≈ 165 µM) | 256 (≈ 661 µM) | > 512 | 512 (≈ 1320 µM) | > 512 | 128 (≈ 330 µM)
CCCCOC(=O)C1=C(C)NC(=S)NC1c1cccs1 (configuration not stated) | 512 (≈ 1650 µM) | 512 (≈ 1650 µM) | > 512 | 256 (≈ 825 µM) | 512 (≈ 1650 µM) | > 512 | 512 (≈ 1650 µM) | > 512
CSc1ncc(C2NC(=O)NC(C)=C2C(=O)Nc2ccccc2Cl)n1Cc1ccccc1 (configuration not stated) | > 512 | 512 (≈ 1090 µM) | 256 (≈ 547 µM) | 512 (≈ 1090 µM) | > 512 | > 512 | > 512 | 256 (≈ 547 µM)
CSc1ncc(C2NC(=O)NC(C)=C2C(=O)Nc2cccc(Cl)c2)n1Cc1ccccc1 (configuration not stated) | > 512 | 256 (≈ 547 µM) | 256 (≈ 547 µM) | > 512 | 256 (≈ 547 µM) | 256 (≈ 547 µM) | 128 (≈ 274 µM) | 128 (≈ 274 µM)
CSc1ncc(C2NC(=O)NC(C)=C2C(=O)Nc2ccc(Cl)cc2)n1Cc1ccccc1 (configuration not stated) | > 512 | 256 (≈ 547 µM) | 256 (≈ 547 µM) | 256 (≈ 547 µM) | > 512 | > 512 | 256 (≈ 547 µM) | 256 (≈ 547 µM)
CSc1ncc(C2NC(=O)NC(C)=C2C(=O)Nc2ccccn2)n1Cc1ccccc1 (configuration not stated) | > 512 | 256 (≈ 589 µM) | 64 (≈ 147 µM) | 256 (≈ 589 µM) | > 512 | > 512 | > 512 | 128 (≈ 295 µM)
CSc1ncc(C2NC(=O)NC(C)=C2C(=O)Nc2cccnc2)n1Cc1ccccc1 (configuration not stated) | > 512 | 256 (≈ 589 µM) | 128 (≈ 295 µM) | 256 (≈ 589 µM) | 512 (≈ 1180 µM) | 512 (≈ 1180 µM) | 512 (≈ 1180 µM) | 128 (≈ 295 µM)
CSc1ncc(C2NC(=O)NC(C)=C2C(=O)Nc2ccccc2Cl)n1Nc1ccccc1 (configuration not stated) | > 512 | 256 (≈ 546 µM) | 128 (≈ 273 µM) | 256 (≈ 546 µM) | > 512 | > 512 | > 512 | 128 (≈ 273 µM)
CSc1ncc(C2NC(=O)NC(C)=C2C(=O)Nc2cccc(Cl)c2)n1Nc1ccccc1 (configuration not stated) | > 512 | 512 (≈ 1090 µM) | 128 (≈ 273 µM) | > 512 | > 512 | > 512 | > 512 | 128 (≈ 273 µM)
O=C(O)c1cn(C2CC2)c2cc(N3CCNCC3)c(F)cc2c1=O [CIPROFLOXACIN] | 1 (≈ 3.02 µM) | – | – | – | 0.06 (≈ 0.181 µM) | 1 (≈ 3.02 µM) | 0.5 (≈ 1.51 µM) | –
CC(=O)N1CCN(c2ccc(OCC3COC(Cn4ccnc4)(c4ccc(Cl)cc4Cl)O3)cc2)CC1 (configuration not stated) [KETOCONAZOLE] | – | – | 2 (≈ 3.76 µM) | – | – | – | – | 4 (≈ 7.53 µM)
